Experimental data from ChEMBL document CHEMBL3872220, “Amphiphilic xanthones as a potent chemical entity of anti-mycobacterial agents with membrane-targeting properties” (Eur J Med Chem, 2016).
Converted amounts (≈) assume the structure as drawn.

Experiments:
Format in all cases: functional
[1] = test system: Mycobacterium tuberculosis variant bovis BCG; assay: Bactericidal activity against Mycobacterium bovis BCG ATCC 35734 assessed as log reduction in bacterial colonies at 2 times MIC measured at 9 hrs by time-kill assay
[2] = test system: Mycobacterium tuberculosis; assay: Antimycobacterial activity against rifampicin, streptomycin and ethambutol resistant Mycobacterium tuberculosis clinical isolate 01;005 assessed as reduction in 2 log10 bacterial colonies measured after 14 to 21 days by agar dilution method
[3] = test system: Mycobacterium tuberculosis; assay: Antimycobacterial activity against isoniazid, streptomycin and ethambutol resistant Mycobacterium tuberculosis clinical isolate 01;104 assessed as reduction in 2 log10 bacterial colonies measured after 14 to 21 days by agar dilution method

| SMILES | Activity [1] | MIC [2] | MIC [3] |
| --- | --- | --- | --- |
| CCCN(CCC)CCCCOc1cc2oc3cc(OCCCCN(CCC)CCC)c(OC)c(CC=C(C)C)c3c(=O)c2c(O)c1CC=C(C)C | 2.8 |  |  |
| COc1c(OCCCCN2CCOCC2)cc2oc3cc(OCCCCN4CCOCC4)c(CC=C(C)C)c(O)c3c(=O)c2c1CC=C(C)C |  | 8 µg/mL (≈ 11.5 µM) | 4 µg/mL (≈ 5.77 µM) |
| CCN(CC)CCCCOc1cc2oc3cc(OCCCCN(CC)CC)c(OC)c(CC=C(C)C)c3c(=O)c2c(O)c1CC=C(C)C |  | 8 µg/mL (≈ 12 µM) | 4 µg/mL (≈ 6.02 µM) |
